US6914045B2, “Glycopeptide antibiotics” (Wyeth Holdings Corporation, priority 2001, dated 2005)
In brackets after ≈: the same amount, converted by molar mass.

Tests used:
Enterococcus sp. = assay: in vitro antibacterial evaluation, MIC by broth dilution; format: cell-based; settings: broth dilution, 18 hours at 35° C.
How it was run: (§1)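 Broth dilution per NCCLS M7-A2 in Mueller-Hinton II medium, inoculum 5×10^5 CFU/mL, antibiotic range 64-0.06 μg/mL. MIC taken as lowest concentration inhibiting growth; Gram-positive panel includes recent clinical isolates resistant to methicillin, penicillin and/or vancomycin.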

Staphylococcus sp. = assay: as above; format: cell-based; settings: broth dilution, 18 hours at 35° C.; for MIC Staphylococcus aureus-SMITH (GC 4543): strain GC 4543; for MIC Staphylococcus haemolyticus (GC 4546): strain GC 4546
How it was run: as §1

Streptococcus sp. = assay: as above; format: cell-based; settings: broth dilution, 18 hours at 35° C.
How it was run: as §1

[1] = anatomic pathology (histopathology of heart and kidney) in mice; format: in vivo; settings: CD-1 mice, 20 mg/kg intravenously daily for 9 days, necropsy day 10, microscopic histopathology
Description: Samples of tissues from necropsied mice were formalin-fixed, paraffin-embedded, sectioned, stained with hematoxylin and eosin, and examined microscopically. Histopathologic findings were recorded. These findings were subjectively graded on a scale corresponding to slight, mild, moderate, marked and severe as compared to untreated controls.

Escherichia coli = assay: in vitro antibacterial evaluation, MIC by broth dilution; format: cell-based; settings: 18 hours at 35° C.
How it was run: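 Broth dilution MIC per NCCLS M7-A2 in Mueller-Hinton II medium, inoculum 5×10^5 CFU/mL, antibiotic range 64-0.06 μg/mL. MIC taken as lowest concentration inhibiting growth.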

CC(c1ccccc1)C1NC(=O)CNC(=O)C(CO)NC(=O)C(C(O)C2CN(Cc3ccc4ccccc4c3)C(=N)N2C2OC(CO)C(O)C(O)C2O)NC(=O)C(C(O)C2CNC(=N)N2)NC(=O)C(Cc2ccc(OC3OC(CO)C(OC4OC(CO)C(O)C(O)C4O)C(O)C3O)cc2)NC1=O (stereo not drawn) [Example 67, Cyclo[glycyl-β-methylphenylalanyl-O-(4-O-hexopyranosylhexoyranosyl)tyrosyl-3-(2-iminoimidazolidin-4-yl)seryl-3-[3-hexopyranosyl-2-imino-1-(2-naphthylmethyl)-imidazolidin-4-yl]-serylseryl]]
MIC Enterococcus avium (GC 4558) (Enterococcus sp.; Enterococcus avium (GC 4558)): 64 µg/mL (≈ 44.6 µM) | MIC Enterococcus faecalis (ATCC 29212) (Enterococcus sp.; Enterococcus faecalis (ATCC 29212)): 128 µg/mL (≈ 89.2 µM) | MIC Enterococcus faecalis (GC 4552) (Enterococcus sp.; Enterococcus faecalis (GC 4552)): 128 µg/mL (≈ 89.2 µM) | MIC Enterococcus faecalis (GC 4553) (Enterococcus sp.; Enterococcus faecalis (GC 4553)): 128 µg/mL (≈ 89.2 µM) | MIC Enterococcus faecalis (GC 4554) (Enterococcus sp.; Enterococcus faecalis (GC 4554)): >128 µg/mL | MIC Enterococcus faecalis (GC 6189) (Enterococcus sp.; Enterococcus faecalis (GC 6189)): 128 µg/mL (≈ 89.2 µM) | MIC Enterococcus faecium (GC 2243) (Enterococcus sp.; Enterococcus faecium (GC 2243)): >128 µg/mL | MIC Enterococcus faecium (GC 4556) (Enterococcus sp.; Enterococcus faecium (GC 4556)): >128 µg/mL | MIC Enterococcus faecium (GC 4557) (Enterococcus sp.; Enterococcus faecium (GC 4557)): 128 µg/mL (≈ 89.2 µM) | MIC Enterococcus avium (GC 4558) (Enterococcus sp.): 64 µg/mL (≈ 44.6 µM) | MIC Enterococcus faecalis (ATCC 29212) (Enterococcus sp.): 128 µg/mL (≈ 89.2 µM) | MIC Enterococcus faecalis (GC 2242) (Enterococcus sp.): 128 µg/mL (≈ 89.2 µM) | MIC Enterococcus faecalis (GC 2691) (Enterococcus sp.): 128 µg/mL (≈ 89.2 µM) | MIC Enterococcus faecalis (GC 3059) (Enterococcus sp.): 128 µg/mL (≈ 89.2 µM) | MIC Enterococcus faecalis (GC 4552) (Enterococcus sp.): 128 µg/mL (≈ 89.2 µM) | MIC Enterococcus faecalis (GC 4553) (Enterococcus sp.): 128 µg/mL (≈ 89.2 µM) | MIC Enterococcus faecalis (GC 4554) (Enterococcus sp.): >128 µg/mL | MIC Enterococcus faecalis (GC 6189) (Enterococcus sp.): 128 µg/mL (≈ 89.2 µM) | MIC Enterococcus faecium (GC 2243) (Enterococcus sp.): >128 µg/mL | MIC Enterococcus faecium (GC 4556) (Enterococcus sp.): >128 µg/mL | MIC Enterococcus faecium (GC 4557) (Enterococcus sp.): 128 µg/mL (≈ 89.2 µM) | MIC Enterococcus faecalis (GC 2242) (Enterococcus sp.; strain GC 2242): 128 µg/mL (≈ 89.2 µM) | MIC Enterococcus faecalis (GC 2691) (Enterococcus sp.; strain GC 2691): 128 µg/mL (≈ 89.2 µM) | MIC Enterococcus faecalis (GC 3059) (Enterococcus sp.; strain GC 3059): 128 µg/mL (≈ 89.2 µM) | MIC Staphylococcus aureus (ATCC 29213) (Staphylococcus sp.; strain ATCC 29213): >128 µg/mL | MIC Staphylococcus aureus (GC 1131) (Staphylococcus sp.; strain GC 1131): >128 µg/mL | MIC Staphylococcus aureus (GC 3051) (Staphylococcus sp.; strain GC 3051): >128 µg/mL | MIC Staphylococcus aureus (GC 3053) (Staphylococcus sp.; strain GC 3053): >128 µg/mL | MIC Staphylococcus aureus (GC 4541) (Staphylococcus sp.; strain GC 4541): >128 µg/mL | MIC Staphylococcus aureus (GC 4542) (Staphylococcus sp.; strain GC 4542): >128 µg/mL | MIC Staphylococcus aureus-SMITH (GC 4543) (Staphylococcus sp.): >128 µg/mL | MIC Staphylococcus aureus (GC 4544) (Staphylococcus sp.; strain GC 4544): >128 µg/mL | MIC Staphylococcus aureus (GC 4545) (Staphylococcus sp.; strain GC 4545): >128 µg/mL | MIC Staphylococcus haemolyticus (GC 4546) (Staphylococcus sp.): >128 µg/mL | MIC Coagulase Negative Staphylococcus (GC 4547) (Staphylococcus sp.; strain GC 4547): 128 µg/mL (≈ 89.2 µM) | MIC Coagulase Negative Staphylococcus (GC 4548) (Staphylococcus sp.; strain GC 4548): >128 µg/mL | MIC Coagulase Negative Staphylococcus (GC 4549) (Staphylococcus sp.; strain GC 4549): >128 µg/mL | MIC Coagulase Negative Staphylococcus (GC 4551) (Staphylococcus sp.; strain GC 4551): >128 µg/mL | MIC Coagulase Negative Staphylococcus (GC 6257) (Staphylococcus sp.; strain GC 6257): >128 µg/mL | MIC Streptococcus agalactiae (GC 4564) (Streptococcus sp.): 128 µg/mL (≈ 89.2 µM) | MIC Streptococcus pneumoniae (ATCC 6301) (Streptococcus sp.): 128 µg/mL (≈ 89.2 µM) | MIC Streptococcus pneumoniae (GC 1894) (Streptococcus sp.): 64 µg/mL (≈ 44.6 µM) | MIC Streptococcus pneumoniae (GC 4565) (Streptococcus sp.): 128 µg/mL (≈ 89.2 µM) | MIC Streptococcus pyogenes (GC 4563) (Streptococcus sp.): 128 µg/mL (≈ 89.2 µM) | MIC Streptococcus pneumoniae (ATCC 6301) (Streptococcus sp.; strain ATCC 6301): 128 µg/mL (≈ 89.2 µM) | MIC Streptococcus pneumoniae (GC 1894) (Streptococcus sp.; strain GC 1894): 64 µg/mL (≈ 44.6 µM) | MIC Streptococcus pyogenes (GC 4563) (Streptococcus sp.; strain GC 4563): 128 µg/mL (≈ 89.2 µM) | MIC Streptococcus agalactiae (GC 4564) (Streptococcus sp.; strain GC 4564): 128 µg/mL (≈ 89.2 µM) | MIC Streptococcus pneumoniae (GC 4565) (Streptococcus sp.; strain GC 4565): 128 µg/mL (≈ 89.2 µM) | Anatomical Pathology (Day 10), Heart [1]: 0 | Anatomical Pathology (Day 10), Kidney [1]: 0 | MIC Escherichia coli (ATCC 25922) (Escherichia coli): >128 µg/mL | MIC Escherichia coli (GC 4559) (Escherichia coli): >128 µg/mL | MIC Escherichia coli (GC 4560) (Escherichia coli): 32 µg/mL (≈ 22.3 µM)

CC(c1ccccc1)C1NC(=O)CNC(=O)C(CO)NC(=O)C(C(O)C2CN(Cc3ccc(-c4ccccc4)cc3)C(=N)N2C2OC(CO)C(O)C(O)C2O)NC(=O)C(C(O)C2CNC(=NCc3ccc(-c4ccccc4)cc3)N2Cc2ccc(-c3ccccc3)cc2)NC(=O)C(Cc2ccc(OC3OC(CO)C(OC4OC(CO)C(O)C(O)C4O)C(O)C3O)cc2)NC1=O (stereo not drawn) [Example 66, Cyclo[glycyl-β-methylphenylalanyl-O-(4-O-hexopyranosylhexopyranosyl)tyrosl-3-[3-(4-phenylbenzyl)-2-(4-phenylbenzyl)iminolimidazolidin-4-yl]seryl-3-[3-hexopyranosyl-2-imino-1-(4-phenylbenzyl)-imidazolidin-4-yl]serylseryl]]
MIC Enterococcus avium (GC 4558) (Enterococcus sp.): 4 µg/mL (≈ 2.23 µM) | MIC Enterococcus faecalis (ATCC 29212) (Enterococcus sp.): 16 µg/mL (≈ 8.92 µM) | MIC Enterococcus faecalis (GC 2242) (Enterococcus sp.): 16 µg/mL (≈ 8.92 µM) | MIC Enterococcus faecalis (GC 2691) (Enterococcus sp.): 32 µg/mL (≈ 17.8 µM) | MIC Enterococcus faecalis (GC 3059) (Enterococcus sp.): 32 µg/mL (≈ 17.8 µM) | MIC Enterococcus faecalis (GC 4552) (Enterococcus sp.): 32 µg/mL (≈ 17.8 µM) | MIC Enterococcus faecalis (GC 4553) (Enterococcus sp.): 8 µg/mL (≈ 4.46 µM) | MIC Enterococcus faecalis (GC 4554) (Enterococcus sp.): 64 µg/mL (≈ 35.7 µM) | MIC Enterococcus faecalis (GC 6189) (Enterococcus sp.): 32 µg/mL (≈ 17.8 µM) | MIC Enterococcus faecium (GC 2243) (Enterococcus sp.): 8 µg/mL (≈ 4.46 µM) | MIC Enterococcus faecium (GC 4556) (Enterococcus sp.): 32 µg/mL (≈ 17.8 µM) | MIC Enterococcus faecium (GC 4557) (Enterococcus sp.): 4 µg/mL (≈ 2.23 µM) | MIC Enterococcus faecalis (GC 2242) (Enterococcus sp.; strain GC 2242): 16 µg/mL (≈ 8.92 µM) | MIC Enterococcus faecalis (GC 2691) (Enterococcus sp.; strain GC 2691): 32 µg/mL (≈ 17.8 µM) | MIC Enterococcus faecalis (GC 3059) (Enterococcus sp.; strain GC 3059): 32 µg/mL (≈ 17.8 µM) | MIC Staphylococcus aureus-SMITH (GC 4543) (Staphylococcus sp.): 8 µg/mL (≈ 4.46 µM) | MIC Staphylococcus haemolyticus (GC 4546) (Staphylococcus sp.): 4 µg/mL (≈ 2.23 µM) | MIC Streptococcus agalactiae (GC 4564) (Streptococcus sp.): 32 µg/mL (≈ 17.8 µM) | MIC Streptococcus pneumoniae (ATCC 6301) (Streptococcus sp.): 32 µg/mL (≈ 17.8 µM) | MIC Streptococcus pneumoniae (GC 1894) (Streptococcus sp.): 32 µg/mL (≈ 17.8 µM) | MIC Streptococcus pneumoniae (GC 4565) (Streptococcus sp.): 64 µg/mL (≈ 35.7 µM) | MIC Streptococcus pyogenes (GC 4563) (Streptococcus sp.): 16 µg/mL (≈ 8.92 µM) | MIC Streptococcus pneumoniae (ATCC 6301) (Streptococcus sp.; strain ATCC 6301): 32 µg/mL (≈ 17.8 µM) | MIC Streptococcus pneumoniae (GC 1894) (Streptococcus sp.; strain GC 1894): 32 µg/mL (≈ 17.8 µM) | MIC Streptococcus pyogenes (GC 4563) (Streptococcus sp.; strain GC 4563): 16 µg/mL (≈ 8.92 µM) | MIC Streptococcus agalactiae (GC 4564) (Streptococcus sp.; strain GC 4564): 32 µg/mL (≈ 17.8 µM) | MIC Streptococcus pneumoniae (GC 4565) (Streptococcus sp.; strain GC 4565): 64 µg/mL (≈ 35.7 µM) | Anatomical Pathology (Day 10), Heart [1]: 0 | Anatomical Pathology (Day 10), Kidney [1]: 0 | MIC Escherichia coli (ATCC 25922) (Escherichia coli): >128 µg/mL | MIC Escherichia coli (GC 4559) (Escherichia coli): >128 µg/mL | MIC Escherichia coli (GC 4560) (Escherichia coli): 4 µg/mL (≈ 2.23 µM)
